In one test the test system is T98G glioma cells. Description: MTT colorimetric in vitro growth inhibition assay. Type of test: cell-based, human. The following applies: read-out: IC50 (nM) T98G. In outline: (§1)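 In six-replicate experiments, the effect on growth was taken from formazan optical density relative to untreated cells after MTT reduction. Cells grew in RPMI supplemented with heat-inactivated FCS at 10%.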

A further test relates to Hs683 glioma cells. Description: MTT colorimetric in vitro growth inhibition assay. The class given is cell-based, human. The following applies: read-out: IC50 (nM) Hs683. In outline: as §1
A further test has as its system A549 NSCLC cells. Put plainly: MTT colorimetric in vitro growth inhibition assay. Type of test: cell-based, human. To be noted: read-out: IC50 (nM) A549. In outline: as §1
Another test deals with HT-29 colon cancer cells. Description: MTT colorimetric in vitro growth inhibition assay. Type of test: cell-based, human. To be noted: read-out: IC50 (nM) HT-29. In outline:
as §1

Test [1] relates to MCF-7 breast cancer cells. Put plainly: MTT colorimetric in vitro growth inhibition assay. Type of test: cell-based, human. The following applies: read-out: IC50 (nM) MCF-7. In outline: as §1
The subject of the next test is SKMEL-28 melanoma cells. Put plainly: MTT colorimetric in vitro growth inhibition assay. To be noted: read-out: IC50 (nM) SKMEL-28. The class given is cell-based, human. In outline:
as §1

The test system of test [2] is PC-3 prostate cancer cells. Put plainly: MTT colorimetric in vitro growth inhibition assay. The class given is cell-based, human. To be noted: read-out: IC50 (nM) PC-3. In outline: as §1
The test system of another test is U373 glioma cells. Description: MTT colorimetric in vitro growth inhibition assay. To be noted: read-out: IC50 (nM) U373. The class given is cell-based, human. In outline:
as §1

Test [3] has as its target T1, purified human α1β1 Na+/K+-ATPase (Homo sapiens, UniProt P05023).
T1 construct: made in house; host or cells: Pichia pastoris strain SMD1165; detergent-soluble complex purified
Description: Inhibition of NaK activity of purified detergent-soluble complex (Pi release). The class given is biochemical. To be noted: for selectivity in inhibition of NaK activity of all of the purified complexes: comparison of α1β1, α2β1, α3β1 purified complexes. As to the method: The inhibition of NaK activity of the purified detergent-soluble α1β1, α2β1, and α3β1 complexes by cardiotonic steroids and an analysis of the inhibition data (Ki values) were also performed as previously described. The inhibitors were added to the recombinant enzyme (0.08–0.2 μg of protein) in 400 μl of reaction medium containing 130 mM NaCl, 5 mM KCl, 3 mM MgCl2, 25 mM histidine, pH 7.4, 1 mM EGTA, 0.01 mg/ml SOPS, 0.001 mg/ml cholesterol, and 0.005 mg/ml C12 E8 in 48-well plates. The reaction (37°C for 1 h) was started by the addition of 1mM ATP. Pi release was measured with a malachite green dye to detect the phosphor-molybdate (Pi Color Lock, Innova Biosciences). The percent inhibition V /V0 was calculated for each cardiac glycoside concentration, and Ki values were obtained by fitting the data to the function V /V0 = Ki /([CG] + Ki ) (using Kaleidagraph). V0 and V represent the control rate and rate of NaK-ATPase activity at particular concentrations of cardiac glycosides, [CG], respectively.
Average KD or Ki values ± SEM for each isoform were calculated. Statistical significance was calculated by the unpaired Students t-test. P values <0.05 were considered significant.

The subject of the next test is MDR cancer cell models. Description: MTT viability in several MDR cancer cell models. The class given is cell-based, human. The following applies: overexpression of ABC-transporters and/or altered glutathione metabolism, 72 hours. An excerpt:
(§2) The following human cancer cell lines and their chemoresistant sublines were used in this study: the colon carcinoma cell line HCT-116 p53/wt and the p53 knock-out cell line HCT-116 p53/ko (generously donated by B. Vogelstein, Johns Hopkins University, Baltimore, MD, USA); the epidermal carcinoma-derived cell line KB-3-1 and the ABCB1-overexpressing subline KB-C-1 (generously donated by D.W. Shen, Bethesda, USA); the small cell lung carcinoma cell line GLC-4 and the ABCC1- and LRP-overexpressing subline GLC-4/ADR (from E.G. de Vries, Groningen, Netherlands); the ovarian carcinoma cell line A2780 and the cisplatin resistant subline A2780cis (purchased from Sigma-Aldrich); and the promyelocytic leukemia cell line HL60 and the mitoxantrone resistant subline HL60/mx (generously donated by G. Harker, Salt Lake City, USA). All cell lines were grown in RPMI 1640 supplemented with 10% fetal bovine serum with the exception of the HCT-116 cells, which were grown in McCoy’s medium with 10% serum.
(§3) Figure 4 Impact of different MDR mechanisms on the cytotoxicity of hellebrigenin. […] Viability was determined using a 3-(4,5-dimethythiazol-2-yl)-2,5-diphenyltetrazolium bromide (MTT) colorimetric assay. […]

Test [4] relates to HCT-116 p53/wt and HCT-116 p53/ko colon carcinoma cells. Put plainly: MTT viability, p53 wild-type versus knock-out model. To be noted: 72 hours. The class given is cell-based, human.
Description: as §2, §3

Setting [5] is: three days of culture, * three independent experiments, ** one experiment, six replicates.

Read-outs that look alike come from different tables or passages of the source.

In the case of `C[C@@H]1O[C@@H](O[C@H]2CC[C@]3(C=O)[C@H]4CC[C@]5(C)[C@@H](c6ccc(=O)oc6)CC[C@]5(O)[C@@H]4CC[C@]3(O)C2)[C@H](O)[C@H](O)[C@H]1O[C@@H]1O[C@H](CO)[C@@H](O)[C@H](O)[C@H]1O` [Hellebrin], the IC50 (usually the concentration at which inhibition is half-maximal) in the test with T98G glioma cells (Homo sapiens, T98G, 72 h) amounted to 30 ± 1 nM; with Hs683 glioma cells (Homo sapiens, Hs 683, 72 h), 7 ± 1 nM; in the test with A549 NSCLC cells (Homo sapiens, A549, 72 h) it was 6 ± 1 nM; with HT-29 colon cancer cells (Homo sapiens, HT-29, 72 h), 27 ± 4 nM; in [1] (Homo sapiens, MCF7, 72 h), 58 ± 12 nM; in the test with SKMEL-28 melanoma cells (Homo sapiens, SK-MEL-28, 72 h), 40 ± 5 nM. The IC50 in test [2] (Homo sapiens, 72 h) came out at 11 ± 1 nM; in the test on U373 glioma cells (Homo sapiens, U373 MG, 72 h) it was 41 ± 2 nM. In addition, the Ki (commonly a measure of affinity in units of concentration, obtained from inhibition or displacement) in test [3] stood at 103 ± 7 nM. The “selectivity in inhibition of NaK activity of all of the purified complexes” value in [3] is recorded as “no selectivity”. Also, the “activity in several MDR cancer cell models versus parental cells” value in the test with MDR cancer cell models is on record as “equally active”. Moreover, in [4], the “in vitro growth inhibitory activity in p53 wild-type versus p53KO HCT-116 cells” value is “similar”.

On to `C[C@]12CC[C@H]3[C@@H](CC[C@]4(O)C[C@@H](O)CC[C@]34C=O)[C@@]1(O)CC[C@@H]2c1ccc(=O)oc1` [Hellebrigenin], for which the IC50 came out at 9 ± 1 nM in the test on T98G glioma cells (setting [5]); 6 ± 1 nM with Hs683 glioma cells (setting [5]); 3 ± 1 nM with A549 NSCLC cells (setting [5]); 9 ± 1 nM with HT-29 colon cancer cells (setting [5]); 42 ± 2 nM in test [1] (setting [5]); 28 ± 9 nM with SKMEL-28 melanoma cells (setting [5]). Further, the IC50 in [2] (setting [5]) was 18 ± 1 nM; with U373 glioma cells (setting [5]), 9 ± 1 nM. In addition, in test [3] (37°C, 1 h, 1 mM ATP, read-out: Ki for inhibition of NaK activity of purified human α1β1), the inhibition constant (Ki) worked out at 46 ± 6 nM. The “selectivity in inhibition of NaK activity of all of the purified complexes” value in test [3] was “no selectivity”. Also, the “activity in several MDR cancer cell models versus parental cells” value in the test on MDR cancer cell models was “equally active”. In [4], the “in vitro growth inhibitory activity in p53 wild-type versus p53KO HCT-116 cells” value is recorded as “similar”.

The values above are taken from paper PMC3722118, “Hellebrin and its aglycone form hellebrigenin display similar in vitro growth inhibitory effects in cancer cells and binding profiles to the alpha subunits of the Na^+/K^+-ATPase” (Molecular Cancer, 2013).
